Results reported in patent publication US20110195924A1, “Methods of Inhibiting the Interaction Between S100P and the Receptor for Advanced Glycation End-Products” (priority 2008, published 2011).

What was measured:
Panc-1 cells = assay: Panc-1 matrigel invasion assay; assay type: cell-based
Procedure: FIGS. 2A-2D show the effect of cromolyn on pancreatic cancer cell invasion. Panc-1 and BxPC-3 cells were plated in Bio-coat matrigel and control chambers and cultured in serum-free culture media. After 24 hours non-invaded cells in the upper chamber were removed, and cells that invaded onto the lower surface of the membrane were counted from five adjacent fields. […] Data are expressed as the percent invasion through the matrigel matrix and membrane relative to migration through the control membrane. Means and 95% confidence intervals from three independent experiments performed in triplicate are shown. Two-tailed two-sample (unpaired) Student's t-tests were used to determine P values.
Panc-1 and BxPC-3 cells were seeded in BIOCOAT matrigel invasion chambers and in control chambers without matrigel (Becton-Dickinson, Bedford, Mass.) according to the manufacturer's protocol. Panc-1 cells were seeded with S100P (100 nM) with or without cromolyn (100 μM), and BxPC-3 cells were seeded with or without cromolyn (1-100 μM). Briefly, 2.0×10^5 cells in 300 μL top solution (serum-free media) were added to each chamber and allowed to invade matrigel for 24 hours at 37° C. in a 5% CO2 atmosphere. The non-invading cells on the upper surface of membrane were removed from the chambers with a cotton swab, and the invading cells on the lower surface of the membrane were fixed and stained using a Diff-Quick stain kit (Becton Dickinson, Bedford, Mass.). After two washes with water, the chambers were allowed to air dry. The numbers of invading cells in five adjacent microscope fields per membrane were counted at 20× magnification to obtain the average number of cells per field. Data are expressed as the percent invasion through the matrigel matrix and membrane relative to the migration through the control membrane. The assays were performed three times.

MPan-96 cells = assay: MPanc-96 cell invasiveness; assay type: cell-based, Human
NFκB promoter activity [1] = assay: NFκB luciferase reporter assay in Panc-1 cells; assay type: cell-based
Procedure: FIGS. 3A, 3B, and 3C show the effect of cromolyn on S100P stimulated NFκB promoter activity in pancreatic cancer cells in vitro and in vivo. Panc-1 and BxPC-3 pancreatic cancer cell lines stably expressing an NFκB luciferase reporter were examined for the effects of S100P and cromolyn. […] Means and 95% confidence intervals are shown for three independent experiments performed in triplicate. *, P=0.022, †, P<0.001, and P<0.001 versus control; #, P=0.005 versus 100 nM S100P alone. […] Means and 95% confidence intervals are shown for three independent experiments performed in triplicate. *, P=0.003, †, P<0.001 versus control. […] After 1 week, tumor growth was assessed and NFκB activity was analyzed using an IVIS system (Xenogen Corp., Alameda, Calif.) after injecting mice with D-luciferin (150 mg per kg body weight) (0 time point). The mice were treated with cromolyn (5 mg per kg body weight by intraperitoneal injection), and NFκB luciferase activity was analyzed again at 24 and 48 hours. *, P=0.005 versus control. Means and 95% confidence intervals are shown for two independent experiments (n=4 mice per group). Two-tailed two-sample (unpaired for in vitro and paired for in vivo studies) Student's t-tests were used to determine P values.
To study pancreatic cancer cell NFκB activity, a lentivirus NFκB luciferase reporter gene construct was developed. The NFκB luciferase reporter gene was excised and isolated from the pNF-κB-Luc Vector (Clonetec, Mountain View, Calif.) and cloned into the lentiviral vector FG9 (Gift from Dr. Xiao-Feng Qin, Dept. of Immunology, M.D. Anderson Cancer Center replacing the CMV/LTR and UBiC promoters, to form Lenti-NFκB-Luc. Lentiviral NFκB vector were co-transfected with packaging constructs pRSVREV, pMDLg/pRRE, and the VSV-G expression plasmid pHCMVG, and lentivirus was produced in 293T cells by the calcium transfection method, as previously described in Qin, et al., Inhibiting HIV-1 infection in human T cells by lentiviral-mediated delivery of small interfering RNA against CCR5; Proc. Natl. Acad. Sci. U.S.A. 2003 Jan. 7; 100(1):183-8. […] Functional validation of NFκB reporter activity was conducted in vitro using TNF-α (20 ng/mL, Sigma, St. Louis, Mo.) as a positive control.
BxPC-3 and Panc-1 cells stably expressing a Lenti-NFkB-luc reporter construct were treated with S100P, cromolyn, or the combination for 5 hours. D-luciferin (150 μg/mL) was added to the cells, and luciferase activity was measured using an IVIS bioluminescence system (Xenogen Co. Alameda, Calif.). Each experiment was conducted three times in triplicate.

NFκB promoter activity [2] = assay: NFκB luciferase reporter assay in BxPC-3 cells; assay type: cell-based; details: 5 hours; for basal NFκB activity, mean: 0 μM mean 1.4×10^6
BxPC-3 cells = assay: BxPC-3 cell viability, alone or with gemcitabine; assay type: cell-based; details: 72 hours
Procedure: BxPC-3 cells were plated at 1.0×10^3 cells/well and treated with 0 μM, 1 μM, 10 μM, and 100 μM of cromolyn or C5 alone or in combination with gemcitabine 1 μM and cell viability was analyzed after 72 hours. Two-tailed two-sample (unpaired) Student's t-tests were used to determine P values. […] BxPC-3 cells were plated at 1.0×10^3 cells/well and treated with either 100 μM of cromolyn or 1 μM C5 alone or in combination with gemcitabine (1 μM) and cell viability was analyzed after 72 hours.

SKOV3 ovarian cells [3] = assay: SKOV3 ovarian cell proliferation; assay type: cell-based; details: different concentrations; 24, 48, 72 hours
Procedure: SKOV3 ovarian cells were cultured for up to three days in the presence of different concentrations of cromolyn, and cell proliferation was analyzed at 24, 48, and 72 hours. *, P<0.05.

SKOV3 ovarian cells [4] = assay: SKOV3 ovarian cell viability with taxol; assay type: cell-based; details: taxol 5 μM, cromolyn 10 μM, 48 hours
Procedure: SKOV3 ovarian cells were plated and treated with taxol (5 μM) either in the presence or absence of cromolyn (10 μM) for 48 hours. Cell viability was analyzed after 48 hours. *, P<0.05.

PC3 prostate cells = assay: PC3 prostate cell proliferation; assay type: cell-based; details: different concentrations; 24, 48, 72 hours
Procedure: PC3 prostate cells were cultured for up to three days in the presence of different concentrations of cromolyn, and cell proliferation was analyzed at 24, 48, and 72 hours. *, P<0.05.

SW480 colon cells = assay: SW480 colon cell proliferation; assay type: cell-based; details: cromolyn 100 μM, up to three days
Procedure: SW480 colon cells were cultured for up to three days in the presence of cromolyn (100 μM), and cell proliferation was analyzed. *, P<0.05.

[5] = S100P 100 nM + cromolyn 100 μM, 5 hours

## O=C(O)c1cc(=O)c2c(OCC(O)COc3cccc4oc(C(=O)O)cc(=O)c34)cccc2o1 [cromolyn, disodium 1,3-bis[(2′-carboxylatochromon-5′-yl)oxy]-2-hydroxypropane]
Panc-1 cells; Panc-1, no S100P
  basal cell invasion: did not reduce
Panc-1 cells; Panc-1, S100P 100 nM + cromolyn 100 μM, 24 hours
  cells invaded, mean: 9.4%
Panc-1 cells; Panc-1, S100P 100 nM, cromolyn 100 μM, 24 hours
  cells invaded, difference S100P versus S100P+cromolyn: 48.6%
MPan-96 cells
  basal cell invasiveness: inhibited
NFκB promoter activity [1]; [5]
  NFκB promoter activity, difference versus 100 nM S100P alone: 7100 photons/sec
  NFκB promoter activity, mean: 7360 photons/sec
NFκB promoter activity [1]; cromolyn alone
  basal NFκB activity: no effect
NFκB promoter activity [2]; cromolyn 10 μM
  basal NFκB activity, difference versus 0 μM: 4.7×10^5 photons/sec
  basal NFκB activity, mean: 9.4×10^5 photons/sec
NFκB promoter activity [2]; cromolyn 100 μM
  basal NFκB activity, difference versus 0 μM: 5.9×10^5 photons/sec
  basal NFκB activity, mean: 8.2×10^5 photons/sec
BxPC-3 cells; BxPC-3, gemcitabine 1 μM, FIG. 10
  concentration giving the same level of cell reduction in combination with gemcitabine: 100 µM
BxPC-3 cells; alone and in conjunction with gemcitabine 1 μM
  BxPC-3 cell viability: inhibit
SKOV3 ovarian cells [3]
  growth of SKOV3 cells: reduced the growth
SKOV3 ovarian cells [4]
  cell killing effect of taxol on ovarian cancer cells: increased the cell killing effect of taxol
PC3 prostate cells
  growth of PC3 cells: reduced growth
SW480 colon cells
  growth of SW480 cells: reduced growth
